Patent publication US7084158B2, “Substituted propargylamines” (Bayer Cropscience S.A., priority 2001, dated 2006)

Experiments:
Format in all cases: in vivo
Set-up in all cases: key: compounds were considered to be active when, at a concentration of 500 ppm or less, they had an activity on the harmful organisms of 50% or more
Heliothis virescens = test: Example B: tobacco budworm eggs on filter paper/insect diet, mortality; conditions: 500 ppm or less; 24-hour-old eggs dipped, diet treated; after 6 days
[1] = tested on: Diabrotica undecimpunctata; test: Example C: corn rootworm eggs with maize corn, mortality; conditions: 500 ppm or less; 4-5-day-old eggs; after 6 days
Aedes aegypti = test: Example AG: microtiter plate, yellow fever mosquito larvicidal activity; conditions: 500 ppm or less, after 3 days

Row | SMILES | effect on the eggs and hatched larvae (mortality) (Heliothis virescens) | effect on the eggs and hatched larvae (mortality) [1] | larvicidal activity (Aedes aegypti)
1 | CC1CCN(CC#Cc2cccc(C(F)(F)F)c2)CC1 [Example 24] | active |  | 
2 | CC1CCCN(CC#Cc2cc(C(F)(F)F)cc(C(F)(F)F)c2)C1 (stereo not drawn) [Example 31] |  | active | 
3 | CC1CCN(CC#Cc2ccc(C(F)(F)F)cn2)CC1 [Example 58] |  | active | 
4 | Cc1c(Cl)cccc1C#CCN1CCC(C)CC1 [Example 97] | active |  | 
5 | Cc1cc(Cl)ccc1C#CCN1CCC(C)CC1 [Example 100] | active |  | 
6 | CC1CCN(CC#Cc2ccc(-c3ccccc3)cc2)CC1 [Example 119] | active |  | 
7 | CC1CCN(CC#Cc2ccc(F)c(Cl)c2)CC1 [Example 124] | active |  | 
8 | CC1CCN(CC#Cc2ccnc(C(F)(F)F)n2)CC1 [Example 167] | active |  | 
9 | CC1CCN(CC#Cc2ccc(-c3cc(C(F)(F)F)ccc3Cl)cc2)CC1 [Example 171] | active |  | 
10 | CC1CCN(CC#Cc2ccc(-c3ccc(C(F)(F)F)cc3)cc2)CC1 [Example 172] | active |  | 
11 | CC1CCN(CC#Cc2ccc(-c3cccc(Cl)c3)cc2)CC1 [Example 173] | active |  | 
12 | CC1CCN(CC#Cc2ccc(-c3ccccc3Cl)cc2)CC1 [Example 174] | active |  | 
13 | CC1CCN(CC#Cc2ccc(-c3ccc(Cl)cc3Cl)cc2)CC1 [Example 176] | active |  | 
14 | CC1CCN(CC#Cc2ccc(-c3cc(F)cc([N+](=O)[O-])c3)cc2)CC1 [Example 177] | active |  | 
15 | CCOC(=O)c1cccc(-c2ccc(C#CCN3CCC(C)CC3)cc2)c1 [Example 178] | active |  | 
16 | COc1ccc(-c2ccc(C#CCN3CCC(C)CC3)cc2)cc1 [Example 181] | active |  | 
17 | CC1CCN(CC#Cc2ccc(-c3cccc(C(F)(F)F)c3)cc2)CC1 [Example 182] | active |  | 
18 | Cc1cc(C)nc(C#CCN2CCC(C)CC2)c1 [Example 201] | active | active | 
19 | FC(F)(F)c1cc(C#CCN2CCC(C(F)(F)F)CC2)cc(C(F)(F)F)c1 [Example 205] |  | active | 
20 | CC1CCN(CC#Cc2ccc(Br)c(F)c2)CC1 [Example 207] | active | active | 
21 | Cc1cc(C#CCN2CCC(C)CC2)sc1Br [Example 213] |  |  | active
22 | CC(=O)c1ccc(C#CCN2CCC(C)CC2)s1 [Example 214] | active |  | 
23 | CC1CCN(CC#Cc2ccc(Br)s2)CC1 [Example 215] | active |  | active

Row | SMILES | effect on the eggs and hatched larvae (mortality) (Heliothis virescens) | effect on the eggs and hatched larvae (mortality) [1] | larvicidal activity (Aedes aegypti)
24 | CC1CCN(CC#Cc2ccc(Cl)s2)CC1 [Example 216] | active |  | active
25 | CC1CCN(CC#Cc2cccc(-c3ccc(C(F)(F)F)cc3)c2)CC1 [Example 217] | active |  | 
26 | CC1CCN(CC#Cc2cccc(-c3cc(C(F)(F)F)cc(C(F)(F)F)c3)c2)CC1 [Example 218] |  |  | active
27 | CC1CCN(CC#Cc2cccc(-c3cccc(Cl)c3)c2)CC1 [Example 219] |  |  | active
28 | CC1CCN(CC#Cc2cccc(-c3cccc4ccccc34)c2)CC1 [Example 221] | active |  | 
29 | CC1CCN(CC#Cc2cccc(-c3ccc(Cl)cc3)c2)CC1 [Example 222] | active |  | 
30 | CC1CCN(CC#Cc2cccc(-c3cnc(Cl)c(Cl)c3)c2)CC1 [Example 224] | active |  | 
31 | CC1CCN(CC#Cc2cccc(-c3ccc(Cl)s3)c2)CC1 [Example 225] | active |  | 
32 | CC1CCN(CC#Cc2cccc(-c3ccc(C#N)cc3)c2)CC1 [Example 226] | active |  | 
33 | CC1CCN(CC#Cc2ccc(-c3cccc(C(F)(F)F)c3)s2)CC1 [Example 229] | active |  | 
34 | COc1ccc(-c2ccc(C#CCN3CCC(C)CC3)cc2F)cc1 [Example 231] |  | active | 
35 | Cc1cc(C#CCN2CCC(C)CC2)sc1-c1ccc(F)cc1 [Example 232] | active |  | 
36 | Cc1ccc(-c2sc(C#CCN3CCC(C)CC3)cc2C)cc1 [Example 236] | active |  | 
37 | Cc1cc(C#CCN2CCC(C)CC2)sc1-c1ccc(Cl)cc1 [Example 239] | active |  | 
38 | CC1CCN(CC#Cc2ccc(-c3ccccc3)s2)CC1 [Example 240] | active |  | 
39 | Cc1ccc(-c2ccc(C#CCN3CCC(C)CC3)s2)cc1 [Example 241] | active |  | 
40 | CC1CCN(CC#Cc2ccc(-c3ccc(C(F)(F)F)cc3)s2)CC1 [Example 242] |  |  | active
41 | CC1CCN(CC#Cc2ccc(-c3ccc(OC(F)(F)F)cc3)s2)CC1 [Example 244] | active |  | active
42 | Cc1cccc(-c2ccc(C#CCN3CCC(C)CC3)s2)c1 [Example 246] | active |  | 
43 | CC1CCN(CC#Cc2ccc(-c3cccc(Cl)c3)s2)CC1 [Example 247] | active |  | 
44 | Cc1ccc(-c2ccc(C#CCN3CCC(C)CC3)cc2F)cc1 [Example 248] |  |  | active
45 | CC1CCN(CC#Cc2ccc(-c3ccc(F)c(Cl)c3)c(F)c2)CC1 [Example 249] |  |  | active
46 | CCc1ccc(C#CCN2CCC(C)CC2)cc1F [Example 254] | active |  | active

Row | SMILES | effect on the eggs and hatched larvae (mortality) (Heliothis virescens) | effect on the eggs and hatched larvae (mortality) [1] | larvicidal activity (Aedes aegypti)
47 | CC1CCN(CC#Cc2cc(C(F)(F)F)cc(C(F)(F)F)c2)CC1C (stereo not drawn) [Example 267] |  | active | active
48 | CC1CCN(CC#Cc2ccc(-c3cc(C(F)(F)F)cc(C(F)(F)F)c3)s2)CC1 [Example 271] | active |  | 
49 | CC1CCN(CC#Cc2ccc(-c3cc(Cl)cc(Cl)c3)s2)CC1 [Example 273] | active |  | 
50 | FC(F)(F)c1cc(C#CCN2CCCC(C(F)(F)F)C2)cc(C(F)(F)F)c1 (stereo not drawn) [Example 281] |  | active | 
51 | FC(F)(F)c1cc(C#CCN2CCCC(C(F)(F)F)C2)nc(C(F)(F)F)c1 (stereo not drawn) [Example 282] |  | active | 
52 | CC1CCN(CC#Cc2cc(Cl)c(OC(F)(F)C(F)Cl)c(Cl)c2)CC1 (stereo not drawn) [Example 283] | active |  | 
53 | Cc1ccc(C#CCN2CCC(C)CC2)cc1C(F)(F)F [Example 284] | active |  | 
54 | CC1CCN(CC#Cc2ccc(F)c(C(F)(F)F)c2)CC1 [Example 285] | active |  | 
55 | CC1CCN(CC#Cc2ccc(C#N)c(Cl)c2)CC1 [Example 289] | active |  | active
56 | CC1CCN(CC#Cc2ccc(C=NOCc3ccccc3)s2)CC1 [Example 292] | active |  | active
57 | Cc1ccc(C#CCN2CCC(C)CC2)s1 [Example 293] |  |  | active
58 | Cc1cc(C)nc(C#CCN2CCC(C)CC2)c1 [Example 294] |  |  | active
59 | CC1CCN(CC#Cc2c(Cl)cc(C(F)(F)F)cc2Cl)CC1 [Example 295] | active | active | 
60 | CC1CCN(CC#Cc2ccc(C=NOCc3ccc(Cl)cc3Cl)s2)CC1 [Example 296] | active |  | 
61 | FC(F)(F)c1cccc(C#CCN2CCCC(C(F)(F)F)C2)c1 (stereo not drawn) [Example 297] |  | active | 
62 | CC1CCN(CC#Cc2ccc(Cl)cc2Cl)CC1.Cl [Example 1000] | active |  | 
63 | CC1(C)CCCN(CC#Cc2cc(C(F)(F)F)cc(C(F)(F)F)c2)C1.Cl [Example 1001] |  | active | 
64 | CC1CCN(CC#Cc2cc(Cl)cc(Cl)c2)CC1.Cl [Example 1011] | active |  | 
65 | Cl.FC(F)(F)c1cc(C#CCN2CCC(C(F)(F)F)CC2)nc(C(F)(F)F)c1 [Example 1050] |  | active | 
66 | CC1CCN(CC#Cc2cc(C(F)(F)F)cc(C(F)(F)F)c2)CC1.O=C(O)/C=C\C(=O)O [Example 1056] | active | active | 
67 | CCS(=O)(=O)O.Cc1cc(C(F)(F)F)cc(C#CCN2CCC(C)CC2)n1 [Example 1064] |  | active | active
68 | Cc1cc(C#CCN2CCC(C)CC2)cc(C(F)(F)F)c1.Cl [Example 1069] |  | active | active
